{"source": "ChEMBL document CHEMBL5352451", "about": "“Novel rhodanine based inhibitors of aldose reductase of non-acidic nature with p-hydroxybenzylidene functional group” (Eur J Med Chem, 2023)", "key": {"[1]": {"molecular_target": "Aldo-keto reductase family 1 member B1 (Homo sapiens, UniProt P15121)", "test": "Inhibition of ALR2 (unknown origin)"}, "[2]": {"species": "Rattus norvegicus", "test": "Selectivity index, ratio of IC50 for rat kidney ALR1 to IC50 for rat eye lens ALR2"}, "[3]": {"test": "Inhibition of rat eye lens ALR2 using DL-glyceraldehyde by measuring NADPH consumption by spectrophotometric analysis", "type": "tissue-based"}, "[4]": {"molecular_target": "Aldo-keto reductase family 1 member A1 (Rattus norvegicus, UniProt P51635)", "sequence (P51635 whole entry, looked up)": "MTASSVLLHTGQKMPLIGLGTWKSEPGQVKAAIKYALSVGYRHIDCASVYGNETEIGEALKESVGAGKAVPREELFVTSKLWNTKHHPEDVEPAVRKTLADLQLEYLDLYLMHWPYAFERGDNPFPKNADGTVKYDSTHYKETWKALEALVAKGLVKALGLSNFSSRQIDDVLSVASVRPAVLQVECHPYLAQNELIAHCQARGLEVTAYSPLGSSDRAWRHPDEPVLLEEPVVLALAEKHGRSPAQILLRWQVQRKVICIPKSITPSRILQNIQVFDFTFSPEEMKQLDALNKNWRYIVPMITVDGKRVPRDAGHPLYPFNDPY", "test": "Inhibition of rat kidney ALR1 using D-glucuronate by measuring NADPH consumption by spectrophotometric analysis", "type": "tissue-based"}}}
{"smiles": "O=C1S/C(=C\\c2ccc(O)cc2)C(=O)N1CC(=O)C(F)(F)F", "values": [{"measurement": "IC50", "setting": "[1]", "value": 3000, "unit": "nM"}]}
{"smiles": "O=C1/C(=C/c2ccc(O)cc2)SC(=S)N1/N=C/c1ccccc1", "values": [{"measurement": "Ratio IC50", "setting": "[2]", "value": 24}, {"measurement": "IC50", "setting": "[3]", "value": 892, "unit": "nM"}, {"measurement": "pIC50", "setting": "[3]", "value": 6.05}, {"measurement": "IC50", "setting": "[4]", "value": 21100, "unit": "nM"}]}
{"smiles": "O=C(CN1C(=O)S/C(=C\\c2ccc(O)cc2)C1=O)Nc1ccccc1O", "values": [{"measurement": "IC50", "setting": "[1]", "value": 950, "unit": "nM"}]}
{"smiles": "Cc1ccccc1/C=N/N1C(=O)/C(=C/c2ccc(O)cc2)SC1=S", "values": [{"measurement": "Ratio IC50", "setting": "[2]", "value": 12}, {"measurement": "IC50", "setting": "[3]", "value": 53, "unit": "nM"}, {"measurement": "pIC50", "setting": "[3]", "value": 7.28}, {"measurement": "IC50", "setting": "[4]", "value": 635, "unit": "nM"}]}
{"smiles": "O=C1/C(=C/c2ccc(O)cc2)SC(=S)N1/N=C/c1ccccc1Cl", "values": [{"measurement": "Ratio IC50", "setting": "[2]", "value": 12}, {"measurement": "IC50", "setting": "[3]", "value": 149, "unit": "nM"}, {"measurement": "pIC50", "setting": "[3]", "value": 6.83}, {"measurement": "IC50", "setting": "[4]", "value": 1760, "unit": "nM"}]}
{"smiles": "COc1ccc(/C=N/N2C(=O)/C(=C/c3ccc(O)cc3)SC2=S)cc1", "values": [{"measurement": "Ratio IC50", "setting": "[2]", "value": "> 11"}, {"measurement": "IC50", "setting": "[3]", "value": 2150, "unit": "nM"}, {"measurement": "pIC50", "setting": "[3]", "value": 5.67}, {"measurement": "IC50", "setting": "[4]", "value": "> 25000", "unit": "nM"}]}
{"smiles": "CC(/C=C1\\SC(=S)N(CC(=O)O)C1=O)=C\\c1ccccc1", "note": "[EPALRESTAT]", "values": [{"measurement": "IC50", "setting": "[3]", "value": 250, "unit": "nM"}, {"measurement": "pIC50", "setting": "[3]", "value": 6.6}]}
{"smiles": "COc1ccc2nc(/N=C3\\NC(=O)/C(=C/c4ccc(O)cc4)S3)sc2c1", "values": [{"measurement": "IC50", "setting": "[1]", "value": 1300, "unit": "nM"}]}
{"smiles": "O=C1/C(=C/c2ccc(O)cc2)SC(=S)N1/N=C/c1ccc(F)cc1", "values": [{"measurement": "Ratio IC50", "setting": "[2]", "value": 8}, {"measurement": "IC50", "setting": "[3]", "value": 27, "unit": "nM"}, {"measurement": "pIC50", "setting": "[3]", "value": 7.57}, {"measurement": "IC50", "setting": "[4]", "value": 228, "unit": "nM"}]}
{"smiles": "COC(=O)CN1C(=O)S/C(=C\\c2ccc(O)cc2)C1=O", "values": [{"measurement": "IC50", "setting": "[1]", "value": 6180, "unit": "nM"}]}
{"smiles": "O=C(CN1C(=O)S/C(=C\\c2ccc(O)cc2)C1=O)NO", "values": [{"measurement": "IC50", "setting": "[1]", "value": 1790, "unit": "nM"}]}
{"smiles": "O=C1/C(=C/c2ccc(O)cc2)SC(=S)N1/N=C/c1ccc(O)cc1", "values": [{"measurement": "Ratio IC50", "setting": "[2]", "value": 5}, {"measurement": "IC50", "setting": "[3]", "value": 22, "unit": "nM"}, {"measurement": "pIC50", "setting": "[3]", "value": 7.66}, {"measurement": "IC50", "setting": "[4]", "value": 116, "unit": "nM"}]}
